Results on two molecules are retold here after patent EP0891772A2, “Therapeutic agent for rheumatic disease comprising nonsteroidal anti-inflamatory drug and phenylpropionic acid derivative” (SANTEN PHARMACEUTICAL CO., LTD., priority 1997, dated 1999).

Molecules are shown by their SMILES.

Assay [1] deals with type II collagen-induced arthritis. Description: type II collagen-induced arthritis model. The class given is in vivo, DBA/1 strain mouse. The conditions noted are these: for bone destruction score: 26th day after the secondary sensitization. Here is the method: A solution (4 mg/ml) of bovine joint cartilage type II collagen in diluted hydrochloric acid was mixed with Freund' s complete adjuvant of the same volume to prepare an emulsion. As a primary sensitization, this emulsion was injected intra-dermally into tail root site of DBA/1 strain mouse at a dose of 100 µl (corresponding to 200 µg of the type II collagen per mouse). After 21 days from the primary sensitization, 100 µl of this emulsion was injected intra-dermally into a tail root site of the mouse again (secondary sensitization). […] 5% carboxymethyl cellulose and a nonsteroidal anti-inflammatory drug was suspended in 1% methyl cellulose. With regard to the confirmation of onset of arthritis, the stage where swelling at the site of joint accompanied by erythema was defined as the onset of arthritis. With regard to degree of the arthritis, scoring was conducted for each paw according to the evaluating criterion for arthritis grade as mentioned below and the total point for four paws was used as an arthritic score. • 0: no change • 1: weak swelling and weak erythema were observed • 2: weak swelling and erythema were observed • 3: strong swelling and erythema were observed • 4: strong swelling and erythema accompanied by bone erosion were observed Then, on the 26th day after the secondary sensitization, X-ray photographs of the joints of four paws were taken.

In assay [2] the test system is adjuvant-induced arthritis. Description: adjuvant-induced arthritis model. The class given is in vivo, rat. As for the experimental part:
A suspension (0.6 mg/100 µl) of Mycobacterium butyricum (adjuvant) in liquid paraffin was injected subcutaneously into a left hind paw of rat (male; nine weeks age; body weight being about 240 grams) to induce arthritis.
Incidentally, as a control, a suspension not containing a test compound was administered by the same manner as above.

Assay [3] has as its system hepatic allotransplantation. The conditions noted are these: rats; Surg. Today, 26, 419-426(1996); cited from earlier work.
Setting [4] is: diclofenac sodium alone 3 mg/kg, oral once a day.
[5] abbreviates: present compound alone 100 mg/kg, oral once a day.

Take `O=C(O)Cc1ccccc1Nc1c(Cl)cccc1Cl` [diclofenac sodium, reference compound]: in assay [1] (setting [4]), the arthritic score result is listed as “improvement in the arthritic score was recognized” and the “effect of delaying the onset of arthritis” value is on record as “no effect of delaying the onset of arthritis was recognized”. Besides, the bone destruction score entry in assay [1] (diclofenac sodium alone 3 mg/kg) is recorded as “a suppressive effect was recognized but the instant effect was far weaker than in the case of the combination administration”.
In the case of `COc1ccc(/C=C/CCCCOc2cccc(OCCCCC(=O)O)c2CCC(=O)O)cc1` [the present compound, 3-[1-[6-(4-methoxyphenyl)hex-5E-enyl]oxy-3-(4-carboxylbutyl)oxybenzen-2-yl]propionic acid], the arthritic score result in assay [1] (setting [5]) is recorded as “improvement was recognized slightly”; in assay [1] (present compound alone 200 mg/kg, oral once a day, tendency = slight improvement as at 100 mg/kg) it was “Such a tendency was unchanged”. Also, the incidence of arthritis entry in assay [1] (setting [5]) is reported as “nearly the same proceeding as in the control group”; in assay [1] (present compound alone 200 mg/kg, oral once a day, tendency = nearly as control, as at 100 mg/kg) it was “Such a tendency was unchanged”. Besides, the bone destruction score entry in assay [1] (present compound alone 100 mg/kg) is given as “no suppressive effect was recognized at all”; in assay [1] (present compound alone 200 mg/kg), “the suppressive effect was hardly recognized”. Also, in assay [2] (present compound alone), the “pathohistological test: bone destruction, edema, etc.” value was “nearly no suppressive effect”. Further, the “edema of left hindpaw (paw volume)” value in assay [2] (present compound alone 100 mg/kg, oral once a day from the 14th day after adjuvant) is on record as “nearly no suppressive effect on edema was recognized”. In assay [3], the “immunosuppressive action to hepatic allotransplantation” value is “shows an immunosuppressive action”.
